Measured values from patent US20090270363A1, “2-Aryl- and 2-Heteroarylthiazolyl Compounds, Methods for Their Preparation and Use Thereof” (Wyeth, priority 2008, published 2009).

How the values were obtained:
[1] = system: securin "knock out" cells D8 (Securin-/-); test: Growth inhibition (sulforhodamine B, 5 days) of securin knock out cells D8; assay type: cell-based; settings: for IC50: 120 h, securin knock out D8 cells, 5 days, SRB; for Selectivity Ratio D8: IC50 HCT116 / IC50 securin KO D8
[2] = system: securin "knock out" cells F3 (Securin-/-); test: Growth inhibition (sulforhodamine B, 5 days) of securin knock out cells F3; assay type: cell-based; settings: for IC50: 120 h, securin knock out F3 cells, 5 days, SRB; for Selectivity Ratio F3: IC50 HCT116 / IC50 securin KO F3
[3] = system: Xenografts of a Human Breast Carcinoma Cell Line (MDA-MB-361); test: Tumor xenograft study versus Herceptin (Table 2); assay type: in vivo
Description: (§1) Selected fused bicyclic 2-aryl- or 2-heteroarylthiazolyl compounds of formula I were tested for their activity in a securin parental cell line (HCT116 FB) and a securin knockout (KO) cell line. […] The in-vivo activity of selected fused bicyclic 2-aryl- or 2-heteroarylthiazolyl compounds of formula I was studied in cells growing as xenografts in athymic (nude) mice. The effect of Examples 164, 166 and 167 was studied in xenografts of a human breast carcinoma cell line (MDA-MB-361).
(§2) In-vivo Activity in Tumor Xenografts. […] The fused bicyclic 2-arylthiazolyl compounds were formulated using 0.5% Methocel™ (methylcellulose) and 0.4% Tween 80™ (polysorbate-80 and oleic acid) and administered daily orally (PO), by gavage or by syringe. Tumor mass [(length×width^2)/2] was determined every 7 days. Inhibition of tumor growth was calculated relative to conventional (vehicle treated) controls.

[4] = system: HCT116 cells (Securin+/+, securin parental, HCT116 FB); test: Growth inhibition (sulforhodamine B, 5 days) of securin parental cells; assay type: cell-based; settings: Homo sapiens, HCT-116, 120 h, SRB
[5] = system: Xenografts of a Human Breast Carcinoma Cell Line (MDA-MB-361); test: Tumor xenograft study versus Vincristine (Table 3); assay type: in vivo; settings: days 2 through 21
Description: as §1, §2
The effectiveness of Examples 164, 166 and 167 versus Vincristine at controlling tumor growth was studied and the results are summarized in Table 3 and FIG. 2.

[6] = 20 mg/kg/dose PO, days 1 through 20
[7] = 25 mg/kg/dose IP, days 1, 3, 5 ... 19

## CN(C)c1ccc(-c2nc3c(s2)C(O)CCC3)cc1 (centres unmarked) [Example 166, 2-[4-(dimethylamino)phenyl]-4,5,6,7-tetrahydro-1,3-benzothiazol-7-ol]
[1]
  IC50: 1.7 µM
  Selectivity Ratio D8: 30
[2]
  IC50: 3.5 µM
  Selectivity Ratio F3: 15
[3]; [6]
  % T/C Day 7: 69%
  % T/C Day 14: 126%
  % T/C Day 21: 102%
  Relative Tumor Growth Day 7: 1.33
  Relative Tumor Growth Day 14: 4.05
  Relative Tumor Growth Day 21: 10.76
  S/T = # of Survivors/# of Treated on Day +21: 10/10
[3]; [7]
  % T/C Day 7: 80%
  % T/C Day 14: 93%
  % T/C Day 21: 92%
  Relative Tumor Growth Day 7: 1.55
  Relative Tumor Growth Day 14: 3.00
  Relative Tumor Growth Day 21: 9.63
  S/T = # of Survivors/# of Treated on Day +21: 8/10
[4]
  IC50: 52.5 µM
[5]; 10 mg/kg/dose PO
  % T/C Day 8: 60%
  % T/C Day 15: 60%
  % T/C Day 22: 100%
  Relative Tumor Growth Day 8: 3.16
  Relative Tumor Growth Day 15: 7.40
  Relative Tumor Growth Day 22: 22.01
[5]; 30 mg/kg/dose PO
  % T/C Day 8: 55%
  % T/C Day 15: 59%
  % T/C Day 22: 98%
  Relative Tumor Growth Day 8: 2.87
  Relative Tumor Growth Day 15: 7.34
  Relative Tumor Growth Day 22: 21.48
[5]; 40 mg/kg/dose PO
  % T/C Day 8: 33%
  % T/C Day 15: 35%
  % T/C Day 22: 53%
  Relative Tumor Growth Day 8: 1.72
  Relative Tumor Growth Day 15: 4.29
  Relative Tumor Growth Day 22: 11.74
  Relative Tumor Growth Day 29: 7.65
[5]; 50 mg/kg/dose PO
  % T/C Day 8: 58%
  % T/C Day 15: 62%
  Relative Tumor Growth Day 8: 3.04
  Relative Tumor Growth Day 15: 7.67
  Relative Tumor Growth Day 22: Toxic
[5]; 50 mg/kg/dose PO, * = sacrificed earlier due to tumor size
  S/T = # of Survivors/# of Treated on Day +36: 0/5

## CN(C)c1ccc(-c2nc3c(s2)[C@@H](O)CCC3)cc1 [Example 167, (7S)-2-[4-(dimethylamino)phenyl]-4,5,6,7-tetrahydro-1,3-benzothiazol-7-ol]
[1]
  IC50: 60 µM
  Selectivity Ratio D8: 2
[2]
  IC50: 70.7 µM
  Selectivity Ratio F3: 1
[3]; [6]
  % T/C Day 7: 46%
  % T/C Day 14: 61%
  % T/C Day 21: 61%
  Relative Tumor Growth Day 7: 0.89
  Relative Tumor Growth Day 14: 1.96
  Relative Tumor Growth Day 21: 6.39
  S/T = # of Survivors/# of Treated on Day +21: 5/5
[4]
  IC50: 100 µM
[5]; 25 mg/kg/dose PO
  % T/C Day 8: 61%
  % T/C Day 15: 68%
  % T/C Day 22: 113%
  Relative Tumor Growth Day 8: 3.18
  Relative Tumor Growth Day 15: 8.38
  Relative Tumor Growth Day 22: 24.80
[5]; 50 mg/kg/dose PO
  % T/C Day 8: 50%
  % T/C Day 15: 62%
  % T/C Day 22: 71%
  Relative Tumor Growth Day 8: 2.62
  Relative Tumor Growth Day 15: 7.61
  Relative Tumor Growth Day 22: 15.56
